{
  "source": "patent US8372799B2",
  "about": "“Reverse protein” (Apeptico Forschung und Entwicklung GmbH, priority 2007, dated 2013)",
  "target": "T1, epithelial sodium channels (Homo sapiens, UniProt P37088+P51168+P51170)",
  "T1 construct": "endogenous in cells; host or cells: A549 human lung epithelial cells (ATCC CCL-185)",
  "T1 sequence (P37088 1-669)": "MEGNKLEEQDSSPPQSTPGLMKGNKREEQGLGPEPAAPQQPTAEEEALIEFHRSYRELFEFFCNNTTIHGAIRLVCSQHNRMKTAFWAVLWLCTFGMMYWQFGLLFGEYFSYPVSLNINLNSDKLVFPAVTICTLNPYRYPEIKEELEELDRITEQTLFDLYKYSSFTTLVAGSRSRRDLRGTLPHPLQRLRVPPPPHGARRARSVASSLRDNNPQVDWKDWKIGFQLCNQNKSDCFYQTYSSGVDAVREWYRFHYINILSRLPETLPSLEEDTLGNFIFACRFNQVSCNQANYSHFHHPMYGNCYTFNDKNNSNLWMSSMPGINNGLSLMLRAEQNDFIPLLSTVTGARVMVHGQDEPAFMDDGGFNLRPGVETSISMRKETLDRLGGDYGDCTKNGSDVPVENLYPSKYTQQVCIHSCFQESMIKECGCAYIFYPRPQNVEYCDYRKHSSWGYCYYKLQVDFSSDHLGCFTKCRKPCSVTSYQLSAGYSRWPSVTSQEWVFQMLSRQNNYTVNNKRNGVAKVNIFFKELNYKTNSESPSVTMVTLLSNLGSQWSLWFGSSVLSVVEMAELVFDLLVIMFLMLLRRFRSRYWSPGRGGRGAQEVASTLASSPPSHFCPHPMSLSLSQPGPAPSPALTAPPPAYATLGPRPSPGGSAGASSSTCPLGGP",
  "T1 sequence (P51168 1-640)": "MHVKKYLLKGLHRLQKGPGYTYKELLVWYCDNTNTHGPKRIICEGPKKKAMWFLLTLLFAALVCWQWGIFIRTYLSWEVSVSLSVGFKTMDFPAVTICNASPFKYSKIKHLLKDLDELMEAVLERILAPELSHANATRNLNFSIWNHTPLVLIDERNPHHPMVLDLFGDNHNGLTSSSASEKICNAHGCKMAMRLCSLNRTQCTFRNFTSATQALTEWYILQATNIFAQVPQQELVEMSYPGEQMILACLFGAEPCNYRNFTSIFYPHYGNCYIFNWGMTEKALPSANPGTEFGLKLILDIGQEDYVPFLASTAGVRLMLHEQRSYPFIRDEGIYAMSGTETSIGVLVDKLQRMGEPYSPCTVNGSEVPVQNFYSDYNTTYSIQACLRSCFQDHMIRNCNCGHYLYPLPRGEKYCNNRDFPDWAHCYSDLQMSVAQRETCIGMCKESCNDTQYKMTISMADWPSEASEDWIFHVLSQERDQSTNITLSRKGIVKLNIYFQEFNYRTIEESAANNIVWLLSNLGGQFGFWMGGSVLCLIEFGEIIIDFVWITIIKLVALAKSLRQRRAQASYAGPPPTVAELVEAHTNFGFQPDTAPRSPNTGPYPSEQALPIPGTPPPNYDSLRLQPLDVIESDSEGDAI",
  "T1 sequence (P51170 1-649)": "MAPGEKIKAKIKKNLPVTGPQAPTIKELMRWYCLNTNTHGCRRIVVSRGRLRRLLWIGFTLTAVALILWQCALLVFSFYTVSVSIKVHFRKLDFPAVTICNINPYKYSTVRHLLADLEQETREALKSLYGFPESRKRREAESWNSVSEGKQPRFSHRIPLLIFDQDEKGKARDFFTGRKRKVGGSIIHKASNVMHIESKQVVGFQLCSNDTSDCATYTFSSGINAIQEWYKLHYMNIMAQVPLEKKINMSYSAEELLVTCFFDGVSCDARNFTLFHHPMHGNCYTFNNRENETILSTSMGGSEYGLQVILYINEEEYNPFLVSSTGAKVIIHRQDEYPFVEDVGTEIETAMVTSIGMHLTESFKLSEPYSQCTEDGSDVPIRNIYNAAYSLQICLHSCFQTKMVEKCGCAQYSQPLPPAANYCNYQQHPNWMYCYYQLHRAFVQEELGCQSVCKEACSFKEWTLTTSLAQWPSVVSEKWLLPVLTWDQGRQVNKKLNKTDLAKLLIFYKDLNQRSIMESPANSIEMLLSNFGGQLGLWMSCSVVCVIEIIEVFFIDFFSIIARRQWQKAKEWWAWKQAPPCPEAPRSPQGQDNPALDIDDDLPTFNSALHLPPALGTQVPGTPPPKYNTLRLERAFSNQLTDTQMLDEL",
  "assay": "Patch-clamp activation of sodium ion channels in A549 cells",
  "type": "cell-based",
  "settings": "10 μM amiloride",
  "from_the_text": "Furthermore, a method common in laboratories is to detect the activation of ion channels by means of patch-clamp experiments, and this is described, for example, in Clunes M. T. et al, J Physiol Volume 557, No. 3, 809-819 (Jun. 15, 2004). For patch-clamp examinations of ion channels, a glass cannula is stretched thin and filled with a neutral buffer solution. The glass cannula (patch-clamp pipette) is carefully pressed onto an intact epithelial cell. A piece of membrane is located below the pipette. An electrical resistance is thereby produced between the interior of the pipette and the external solution. An electrode attached to a sensitive amplifier dips into the pipette solution.\nThe electrophysiological experiments were performed on human A549 cells (ATTC No. CCL-185). A549 cells are human lung epithelial cells which are involved in the diffusion of water and electrolytes in the lungs.\nThe cells were suspended in DMEM-F-12 medium with 1% penicillin-streptomycin and 10% fetal calf serum, transferred into plastic cell culture vessels and cultivated in the incubator with 95% air and 5% CO2 at 37° C. The medium was changed 2 to 3 times per week. The cells double within approx. 22 hours and a cell concentration of more than 7×10^4 cells per cm^2 was not exceeded.\nMacroscopic currents and single-channel currents were discharged from A549 cells in the “whole cell” and “cell-attached” configuration of the “patch-clamp” technique (Hamill et al, Pflugers Arch. 1981, 391(2):85-100, 1981). For the current dissipations in the “whole cell” configuration, the following bath and electrode solutions were used:\nBath solution: 135 mM sodium methane sulfonate, 10 mM NaCl, 2.7 mM KCl, 1.8 mM CaCl2, 2 mM MgCl2, 5.5 mM glucose, and 10 mM HEPES, pH 7.4. […]\nThe cover slips with the cells cultivated thereon were transferred into a test bath with a capacity of 1 ml, fixed on the microscope table (Axiovert 100, 400-fold magnification), and the cells were superfused with the above-described bath solution. […] In the “cell-attached” configuration, the current can be measured through individual ion channels beneath the electrode tip. In the “whole cell” configuration, the membrane was penetrated beneath the electrode tip so that the current flowing through all ion channels of the cell could be measured. […] Upon obtaining a Gigaohm seal, a defined membrane retaining potential was applied via a pre-amplifier (CV-4 Headstage, Axon Instruments) and an amplifier (Axopatch 1D, Axon Instr.) and the current thereby flowing through the ion channels was measured.\nThe pulse protocol consisted of a hyperpolarization to −100 mV for 1 s at an interval of 5 s. […] The current dissipations thus obtained were stored and analyzed by means of the program PCLAMP 6.0. […]",
  "data": [
    {"smiles": "N=C(N)NC(=O)c1nc(Cl)c(N)nc1N", "note": "[amiloride, reference compound]", "values": [
      {"measurement": "inhibition of ion channels (patch clamp)", "value": "inhibition of ion channels"}
    ]}
  ]
}
